Tests used:
[1] = Stability assessment / semi-quantitative hygroscopicity in a relative humidity (RH) chamber; assay type: physicochemical; conditions: solid in RH chamber; morphology and parent:prodrug composition
Method: “ND” in Table 2 refers to “No Data”. Purity was determined by HPLC. Melting point was determined by differential scanning calorimetry (“DSC”), and semi-quantitative hygroscopicity was determined in a relative humidity (“RH”) chamber.

[2] = Kinetic solubility (iSol Explorer method); assay type: physicochemical; conditions: system solution buffer (pION), aqueous buffer, kinetic from dmso stock
Method: Kinetic solubility was determined using the iSol Explorer method (pION Inc.; Woburn, Mass.). Certain Example Compounds were dissolved in dimethylsulfoxide (DMSO; >99.9% ACS spectrophotometric grade; Sigma-Aldrich, St. Louis, Mo.) to a concentration of 100 mM. The DMSO stock was diluted 1:100 in system solution buffer (pION Inc. Wobum Mass.) that had been adjusted to the desired pH (5.0, 6.8, and 7.4) with either HCl or NaOH. The diluted samples in the desired buffer were incubated for 15 minutes at room temperature and filtered using 96-well plate with 0.25 mm glass fiber/1.2 μm polyethersulfone filter bottoms (Corning, Inc.; Corning, N.Y.). The filtrate is transferred to a second 96-well plate and read on a SpectraMAX 190 (Molecular Devices; Sunnyvale, Calif.) scanning from 190 to 498 nm. The data are analyzed with Sol Explorer Command version 2.2, (pION Inc. Woburn, Mass.) and the concentration reported in molarity and/or mass per volume.

[3] = Stability in mouse plasma; assay type: in vitro ADME; conditions: read-out: Mouse Plasma t1/2
Method: (§1) Relative stability of Example Compound Nos. 1 through 60 in mouse plasma and mouse liver microsomal preparations.
(§2) Certain Example Compounds were each added to a final concentration of 1 μM to 1 mL of each of mouse plasma and mouse liver microsomal preparations (with and without 1 mM NADPH). Stability assays were run in duplicate and were sampled at 0, 5, 15, 30, 60 and 120 minutes as follows: one hundred microliter aliquots of samples were removed at the specified sampling times, and the reaction was quenched with 400 μL of acetonitrile.
(§3) Samples were analyzed by HPLC-ESI-MS/MS by measuring the peak area of both the starting Example Compound and parent compound (i.e., either Parent Compound A or Parent Compound B) that were created by removal of the Prodrug Moiety (as defined in Section 6 herein).

[4] = Stability in mouse liver microsomal preparations; assay type: in vitro ADME; conditions: liver microsomes, with and without 1 mM NADPH (not said which), read-out: Mouse Liver Microsomes t1/2
Method: as §1, §2, §3

[5] = test system: HT1080 human fibrosarcoma cancer cells; test: Anti-tumor activity in HT1080 human fibrosarcoma xenograft with twice daily dosing; assay type: in vivo; conditions: for animals with no detectable tumors by the end of the study: cohort of ten
Method: One million HT1080 cells were implanted subcutaneously in the right flank of female nude mice (Crl:NU-Fox1^nu). When the median tumor volume (MTV) was approximately 209 mm^3, mice were randomized into four cohorts of ten animals. […] All cohorts were dosed twice daily for 7 days. The mice were observed daily for mortality and signs of toxicity. Tumor volumes and body weights were determined from Days 1 to 22. The results are depicted in FIG. 4.

[6] = pH 5.0, 15 minutes at room temperature
[7] = pH 6.8, 15 minutes at room temperature
[8] = pH 7.4, 15 minutes at room temperature
[9] = Example Compounds 44/45 study, 8 mg/kg twice daily for 7 days, Day 9
[10] = Example Compounds 44/45 study, 8 mg/kg twice daily for 7 days, end of the study, Day 22
[11] = Example Compounds 44/45 study, 12 mg/kg twice daily for 7 days, Day 9
[12] = Example Compounds 44/45 study, 12 mg/kg twice daily for 7 days, end of the study, Day 22

solubility at 15 min [2, 6] [µM] | solubility at 15 min [2, 7] [µM] | solubility at 15 min [2, 8] [µM] | half-life at 1 µM [3] [min] | half-life at 1 µM [4] [min] | Compound | Stability at 60° C. and 75% RH [1] | Stability at 40° C. and 75% RH [1] | further results
601 | 547 | 524 | – | – | CC(C)(C)C(=O)OC[n+]1cccc(CNC(=O)Nc2ccc(OCCc3ccccc3-c3ccccc3)cc2)c1 [Example 36, 3-{[({4-[2-(Biphenyl-2-yl)ethoxy]phenyl}carbamoyl)amino]methyl}-1-{[(2,2-dimethylpropanoyl)oxy]methyl}pyridinium] | Oiled out at 1 hr No change in composition | – | –
– | – | – | < 5 | < 5 | CCCC(=O)OC[n+]1cccc(CNC(=O)Nc2ccc(OCCc3ccccc3-c3ccccc3)cc2)c1 [Example 41, 3-{[({4-[2-(Biphenyl-2-yl)ethoxy]phenyl}carbamoyl)amino]methyl}-1-[(butanoyloxy)methyl]pyridinium] | Deliquesced at 24 hr No change in composition | No change in morphology at 14 days, only prodrug observed | –
– | – | – | 27 | 113 | CC(OC(=O)C(C)(C)C)[n+]1cccc(CNC(=O)Nc2ccc(OCCc3ccccc3-c3ccccc3)cc2)c1 (centres unmarked) [Example 39, 3-{[({4-[2-(Biphenyl-2-yl)ethoxy]phenyl}carbamoyl)amino]methyl}-1-{1-[(2,2-dimethylpropanoyl)oxy]ethyl}pyridinium] | Deliquesced at 2 Hr No change in composition | Deliquesced at 2 Hr No change in composition | –
397 | 393 | 399 | – | < 5 | CC(=O)OC[n+]1cccc(CNC(=O)Nc2ccc(OCCc3ccccc3-c3ccccc3)cc2)c1 [Example 34, 1-[(Acetyloxy)methyl]-3-{[({4-[2-(biphenyl-2-yl)ethoxy]phenyl}carbamoyl)amino]methyl}pyridinium] | – | – | –

Compound | solubility at 15 min [2, 6] [µM] | solubility at 15 min [2, 7] [µM] | solubility at 15 min [2, 8] [µM] | half-life at 1 µM [3] [min] | half-life at 1 µM [4] [min] | Stability at 60° C. and 75% RH [1] | Stability at 40° C. and 75% RH [1] | further results
CC(C)C(=O)OC[n+]1cccc(CNC(=O)Nc2ccc(OCCc3ccccc3-c3ccccc3)cc2)c1 [Example 44, 3-{[({4-[2-(Biphenyl-2-yl)ethoxy]phenyl}carbamoyl)amino]methyl}-1-{[(2-methylpropanoyl)oxy]methyl}pyridinium] | – | – | – | < 5 | < 5 | Deliquesced at 5 days approximately 50:50 parent to prodrug | No change in morphology at 14 days, circa 7:93 parent to prodrug | animals with no detectable tumors by the end of the study ([5]; Example Compounds 44/45 study, 8 mg/kg): One; animals with no detectable tumors by the end of the study ([5]; Example Compounds 44/45 study, 12 mg/kg): three; MTV decrease [5, 9]: 62%; tumor regression [5, 9]: 62%; MTV increase [5, 10]: 16%; tumor growth inhibition [5, 10]: 95%; MTV decrease [5, 11]: 67%; tumor regression [5, 11]: 67%; MTV decrease [5, 12]: 67%; tumor regression [5, 12]: 67%; anti-tumor activity in the HT1080 xenograft model (summary statement) ([5]; administered orally, twice daily, all doses tested): significant anti-tumor activity; Tolerability ([5]; xenograft mice, all doses tested, orally twice daily): well tolerated

Reference: patent US20150344426A1, “COMPOUNDS AND THERAPEUTIC USES THEREOF” (ALZHEIMER'S INSTITUTE OF AMERICA, INC., priority 2012, published 2015)
